From US20170368082A1, “FORMULATIONS OF BRINCIDOFOVIR” (priority 2016, published 2017)

Test: Tissue distribution by quantitative whole-body autoradiography (QWBA)
Assay type: in vivo, male Sprague Dawley and Long-Evans rats
Conditions: PO 15 mg/kg, Group 7
Description: The study utilized 4 groups of male SD rats (albino), and 3 groups of male LE rats (pigmented); a total of 39 rats. All animals were obtained from Hilltop Lab Animals, Inc. (Scottdale, Pa.). […] Rats in Group 5 were administered a single 2-h IV infusion of [^14C]brincidofovir at a target dose of 2 mg/kg. […] Three dosing formulations (one for high dose IV, one for low dose IV, and one for PO dose) were prepared at QPS on the day of dosing. The IV formulation for Groups 1, 2, 3, and 4 contained a vehicle of 10 mM sodium phosphate buffer in 5% dextrose solution at pH 8.0(±0.1).
Each animal, at their respective termination time points, was euthanized for QWBA analysis immediately after blood collection. One rat per time point per Group was euthanized as listed below.
The blood samples were maintained on wet ice (approximately 4° C.) and then centrifuged to obtain plasma within 1 h of the blood collection time. Centrifuge settings were recorded in the study notebook. Duplicate aliquots of plasma (0.050 mL) were analyzed for radioactivity using direct counting by LSC, and residual plasma was stored at approximately −70° C. and was saved for possible future analysis under a separate study protocol. Residual red blood cells were discarded as radioactive waste.
The pinna, distal limbs, hair, and tail were removed from each frozen carcass and each frozen carcass was embedded in an aqueous suspension of approximately 2% (w/v) carboxymethylcellulose and frozen into a block. The blocks were stored at approximately −20° C. prior to sectioning. Each blocked carcass was mounted on the object stage of a cryomicrotome (Leica CM3600 Cryomacrocut, Nussloch, Germany and Vibratome 9800, St. Louis, Mo.) maintained at approximately −20° C. and internal standards (3), which were plasma fortified with [^14C]-glucose at one concentration (approximately 0.05 μCi/mL), were placed into the frozen blocks, prior to sectioning, and were used for section thickness quality control. A number of whole-body sections (approximately 40 μm thick) were taken in the sagittal plane at various levels of interest using a whole-body cryomicrotome set at −20° C. Sagittal sections (20-50 μm thick) of frozen carcasses were exposed to phosphor imaging plates. Regions of images in tissues were converted to concentrations using standards. All of the major tissues, organs, and biological fluids were represented.
Tissue concentration data was determined for the following tissues and/or contents: adipose (brown and white), adrenal gland, bile (in duct), blood (cardiac), bone, bone marrow, brain (cerebrum, cerebellum, medulla), cecum (and contents), large intestine (and contents), epididymis, esophagus, eye (uvea and lens), Harderian gland, heart, kidney (cortex and medulla), liver, lung, lymph node, pancreas, pituitary gland, prostate gland, salivary gland, seminal vesicles, skeletal muscle, skin (pigmented and non-pigmented), small intestine (and contents), stomach (gastric mucosa and contents), spleen, spinal cord, testis, thymus, thyroid, and urinary bladder (and contents).
The imaging plate and sections were placed in light-tight exposure cassettes, in a copper-lined lead safe, for a 4-day exposure at room temperature. […] Quantification was performed by image densitometry using MCD image analysis software (v. 7.0, Interfocus Imaging Ltd) and a standard curve constructed from the integrated response [i.e., Molecular Dynamics Counts per square millimeter (MDC/mm^2)] and the nominal concentrations of the ^14C-calibration standards. The concentrations of radioactivity were expressed as the μg equivalents of [^14C]brincidofovir per gram sample (μg equiv/g). A lower limit of quantification (LLOQ) was applied to the data (See section 6.7.4).
Tissue concentrations that fell below the LLOQ were identified as being below the quantification limit (BQL). Tissue areas that were not visualized on autoradiographic images were identified as no sample (NS) and reported as BQL.

## CCCCCCCCCCCCCCCCOCCCOP(=O)(O)CO[C@H](CO)Cn1ccc(N)nc1=O [[14C]brincidofovir]
Adipose (brown)
  AUCall: 24.3703 μg equiv · h/g
  AUCinf—obs: 24.4043 μg equiv · h/g
  Tmax: 4 h
  t1/2: 233.5 h
Adipose (white)
  AUCall: 1.1215 μg equiv · h/g
  AUCinf—obs: 2.4387 μg equiv · h/g
  Tmax: 4 h
Adipose (white), estimate (footnote a)
  t1/2: 17.6 h
Adrenal Gland
  AUCall: 74.5860 μg equiv · h/g
  AUCinf—obs: 58.7136 μg equiv · h/g
  Tmax: 8 h
  t1/2: 43.2 h
Blood (cardiac)
  AUCall: 21.9165 μg equiv · h/g
  AUCinf—obs: 22.3146 μg equiv · h/g
  Tmax: 8 h
Blood (cardiac), estimate (footnote a)
  t1/2: 32.8 h
Bone Marrow
  AUCall: 68.7413 μg equiv · h/g
  AUCinf—obs: 50.2191 μg equiv · h/g
  Tmax: 8 h
Bone Marrow, estimate (footnote a)
  t1/2: 96.3 h
Bone
  AUCall: 1.8470 μg equiv · h/g
  AUCinf—obs: 3.7274 μg equiv · h/g
  Tmax: 4 h
Bone, estimate (footnote a)
  t1/2: 53.9 h
Brain (cerebellum)
  AUCall: 0.8610 μg equiv · h/g
  Tmax: 8 h
Brain (cerebrum)
  AUCall: 0.7650 μg equiv · h/g
  Tmax: 8 h
Brain (medulla)
  AUCall: 0.5770 μg equiv · h/g
  Tmax: 4 h
Cecum
  AUCall: 174.4118 μg equiv · h/g
  AUCinf—obs: 142.1970 μg equiv · h/g
  Tmax: 8 h
Cecum, estimate (footnote a)
  t1/2: 69.9 h
Epididymis
  AUCall: 31.1150 μg equiv · h/g
  AUCinf—obs: 22.3936 μg equiv · h/g
  Tmax: 4 h
Epididymis, estimate (footnote a)
  t1/2: 89.0 h
Esophagus
  AUCall: 27.9015 μg equiv · h/g
  AUCinf—obs: 29.1559 μg equiv · h/g
  Tmax: 4 h
  t1/2: 37.2 h
Eye (uveal tract)
  AUCall: 16.2765 μg equiv · h/g
  AUCinf—obs: 19.8244 μg equiv · h/g
  Tmax: 8 h
Eye (uveal tract), estimate (footnote a)
  t1/2: 57.7 h
Harderian Gland
  AUCall: 63.7645 μg equiv · h/g
  AUCinf—obs: 50.8931 μg equiv · h/g
  Tmax: 8 h
Harderian Gland, estimate (footnote a)
  t1/2: 151.8 h
Heart
  AUCall: 31.1603 μg equiv · h/g
  AUCinf—obs: 23.2365 μg equiv · h/g
  Tmax: 8 h
Heart, estimate (footnote a)
  t1/2: 110.8 h
Kidney Cortex
  AUCall: 804.4980 μg equiv · h/g
  AUCinf—obs: 822.5076 μg equiv · h/g
  Tmax: 8 h
Kidney Cortex, estimate (footnote a)
  t1/2: 244.8 h
Kidney Medulla
  AUCall: 342.0130 μg equiv · h/g
  AUCinf—obs: 286.4307 μg equiv · h/g
  Tmax: 8 h
  t1/2: 41.2 h
Large Intestine
  AUCall: 140.3313 μg equiv · h/g
  AUCinf—obs: 123.4302 μg equiv · h/g
  Tmax: 8 h
Large Intestine, estimate (footnote a)
  t1/2: 37.6 h
Liver
  AUCall: 1426.6340 μg equiv · h/g
  AUCinf—obs: 1435.9700 μg equiv · h/g
  Tmax: 4 h
Liver, estimate (footnote a)
  t1/2: 190.3 h
Lung
  AUCall: 53.1145 μg equiv · h/g
  AUCinf—obs: 39.9962 μg equiv · h/g
  Tmax: 8 h
  t1/2: 93.0 h
Lymph Node
  AUCall: 85.04 μg equiv · h/g
  AUCinf—obs: 57.7701 μg equiv · h/g
  Tmax: 8 h
Lymph Node, estimate (footnote a)
  t1/2: 86.4 h
Pancreas
  AUCall: 10.3720 μg equiv · h/g
  AUCinf—obs: 12.7271 μg equiv · h/g
  Tmax: 4 h
  t1/2: 62.1 h
Pituitary Gland
  AUCall: 30.5073 μg equiv · h/g
  AUCinf—obs: 22.8331 μg equiv · h/g
  Tmax: 4 h
  t1/2: 106.2 h
Prostate Gland
  AUCall: 7.6578 μg equiv · h/g
  AUCinf—obs: 11.0471 μg equiv · h/g
  Tmax: 4 h
  t1/2: 70.1 h
Salivary Gland
  AUCall: 9.1933 μg equiv · h/g
  AUCinf—obs: 12.3800 μg equiv · h/g
  Tmax: 8 h
Salivary Gland, estimate (footnote a)
  t1/2: 67.4 h
Seminal Vesicles
  AUCall: 50.2500 μg equiv · h/g
  AUCinf—obs: 34.9600 μg equiv · h/g
  Tmax: 1 h
  t1/2: 64.7 h
Skeletal Muscle
  AUCall: 1.3265 μg equiv · h/g
  Tmax: 8 h
Skin (non-pigmented)
  AUCall: 14.0275 μg equiv · h/g
  AUCinf—obs: 20.6749 μg equiv · h/g
  Tmax: 8 h
Skin (non-pigmented), estimate (footnote a)
  t1/2: 93.7 h
Skin (pigmented)
  AUCall: 17.0405 μg equiv · h/g
  AUCinf—obs: 21.3144 μg equiv · h/g
  Tmax: 8 h
Skin (pigmented), estimate (footnote a)
  t1/2: 63.4 h
Small Intestine
  AUCinf—obs: 9585.0880 μg equiv · h/g
  Tmax: 4 h
  t1/2: 98.1 h
Small Intestine, 15 mg/kg
  AUCall: 9575.1810 μg equiv · h/g
Spinal Cord
  AUCall: 0.1110 μg equiv · h/g
  Tmax: 4 h
Spleen
  AUCall: 172.2208 μg equiv · h/g
  AUCinf—obs: 125.7566 μg equiv · h/g
  Tmax: 24 h
  t1/2: 115.4 h
Stomach (mucosa)
  AUCall: 90.7575 μg equiv · h/g
  AUCinf—obs: 80.6917 μg equiv · h/g
  Tmax: 2 h
  t1/2: 66.8 h
Testis
  AUCall: 30.3920 μg equiv · h/g
  AUCinf—obs: 21.7757 μg equiv · h/g
  Tmax: 8 h
Testis, estimate (footnote a)
  t1/2: 87.2 h
Thymus
  AUCall: 12.0843 μg equiv · h/g
  AUCinf—obs: 20.6983 μg equiv · h/g
  Tmax: 8 h
Thymus, estimate (footnote a)
  t1/2: 96.9 h
Thyroid
  AUCall: 31.3395 μg equiv · h/g
  AUCinf—obs: 21.8086 μg equiv · h/g
  Tmax: 4 h
  t1/2: 59.0 h
Urinary Bladder
  AUCall: 111.2445 μg equiv · h/g
  AUCinf—obs: 91.1627 μg equiv · h/g
  Tmax: 8 h
  t1/2: 49.7 h
